Measurements published in patent publication EP1048659A1, “RETINOID RECEPTOR AGONISTS” (Institute of Medicinal Molecular Design, Inc., priority 1997, dated 1999).
Where “and” joins values, the source holds several entries; their conditions need not be identical. Equal values may be shown once.

System: Promyelocytic leukemia cell strain HL-60
Experiment: HL-60 cell differentiation induction (morphological change, NBT reduction), each compound alone and with coexisting retinoid Am80
Type: cell-based
Details: for effect on the activity of the coexisting Am80 at a high concentration: compound at 1×10^-6 M; for Ratio of differentiation-induced cells with coexistence of 1×10^-10 Am80: Table 2; for cell differentiation ability of the compound per se: compound used alone; for Ratio of differentiation-induced cells with coexistence of 3×10^-9 Am80: Table 3; for Ratio of differentiation-induced cells with coexistence of 1×10^-9 Am80: Table 1; for ratios of differentiated cells, Coexisting retinoid (concentration) Am80 (-9): compound fixed at 1×10^-6 M with Am80 (-9); for ratios of differentiated cells, Coexisting retinoid (concentration) Am80 (-9.5): compound fixed at 1×10^-6 M with Am80 (-9.5); for ratios of differentiated cells, Coexisting retinoid (concentration) Am80 (-10): compound fixed at 1×10^-6 M with Am80 (-10); for ratios of differentiated cells, Coexisting retinoid (concentration) None: compound fixed at 1×10^-6 M, alone
Protocol: Cell differentiation-inducing activity of each compound of the present invention used alone, and effect on cell differentiation-inducing activity of coexisting retinoid were examined. As a comparative or coexisting retinoid, Am80 ([4-[(5,6,7,8-tetrahydro-5,5,8,8-tetramethyl-2-naphthalenyl)carbamoyl]benzoic acid] was used. Promyelocytic leukemia cell strain HL-60 was used, and differentiation into granulocytic cells was determined by observing morphological change and measuring ability to reduce nitroblue tetrazolium (NBT). The ratios of differentiated cells shown in the following tables were calculated from the ability to reduce NBT. (A) Concentration-dependent differentiation-inducing ability of each compound alone and concentration-dependent effect on the differentiation-inducing ability of 1×10^-9 M Am80 were measured. […] Table 1 (B) Concentration-dependent differentiation-inducing ability of each compound alone and concentration-dependent effect on the differentiation inducing ability of 1×10^-10 M Am80 were measured. […] Table 2 (C) Concentration-dependent differentiation-inducing ability of each compound alone and concentration-dependent effect on the differentiation inducing ability of 3×10^-9 M Am80 were measured.

[1] = (B) 1×10^-10 M Am80, result in words
[2] = compound concentration -6, with 1×10^-10 M Am80
[3] = compound concentration -7, with 1×10^-10 M Am80
[4] = compound concentration -8, with 1×10^-10 M Am80
[5] = compound concentration -6, with 3×10^-9 M Am80
[6] = compound concentration -7, with 3×10^-9 M Am80
[7] = compound concentration -8, with 3×10^-9 M Am80
[8] = (A) 1×10^-9 M Am80, enhancement at a concentration which did not give the cell differentiation-inducing ability, result in words
[9] = compound concentration -7, with 1×10^-9 M Am80
[10] = compound concentration -8, with 1×10^-9 M Am80
[11] = compound concentration -6, with 1×10^-9 M Am80

CN(C(=O)c1ccc2c(c1)C(C)(C)CCC2(C)C)c1ccc(/C=C2\SC(=O)NC2=O)cc1 [TZ191] was tested, and the “effect on the activity of the coexisting Am80 at a high concentration” value [1] was “acted to suppress the activity”, the “effect on the activity of the coexisting Am80” value [1] was “enhanced the activity of the coexisting Am80” and the “Ratio of differentiation-induced cells with coexistence of 1×10^-10 Am80” value [2] was 28%. The “Ratio of differentiation-induced cells with coexistence of 1×10^-10 Am80” value [3] was 75%, the “Ratio of differentiation-induced cells with coexistence of 1×10^-10 Am80” value [4] was 63% and the “cell differentiation ability of the compound per se” value (result in words) was “inactive”.
For CN(c1ccc(/C=C2\SC(=O)NC2=O)cc1)c1ccc2c(c1)C(C)(C)CCC2(C)C [TZ325], the “Ratio of differentiation-induced cells with coexistence of 3×10^-9 Am80” value [5] was 79, the “Ratio of differentiation-induced cells with coexistence of 3×10^-9 Am80” value [6] was 83 and the “Ratio of differentiation-induced cells with coexistence of 3×10^-9 Am80” value [7] was 72.
With C/C(=C\c1ccc(/C=C2\SC(=O)NC2=O)cc1)c1ccc2c(c1)C(C)(C)CCC2(C)C [TZ91] the “effect on the activity of the coexisting Am80” value [8] was “enhanced the activity of the coexisting Am80”, the “Ratio of differentiation-induced cells with coexistence of 1×10^-9 Am80” value [9] was 87% and the “Ratio of differentiation-induced cells with coexistence of 1×10^-9 Am80” value [10] was 62%. For the same compound, the “Ratio of differentiation-induced cells with coexistence of 1×10^-9 Am80” value (compound concentration -9, with 1×10^-9 M Am80) was 58% and the “cell differentiation ability of the compound per se” value (result in words) was “had cell differentiation ability”.
For CN1c2ccccc2N=C(c2ccc(/C=C3\SC(=O)NC3=O)cc2)c2cc3c(cc21)C(C)(C)CCC3(C)C [TZ201], the “effect on the activity of the coexisting Am80” value [8] was “suppressed the activity of the coexisting Am80”, the “Ratio of differentiation-induced cells with coexistence of 1×10^-9 Am80” value [11] was 5% and the “Ratio of differentiation-induced cells with coexistence of 1×10^-9 Am80” value [9] was 53%. The “Ratio of differentiation-induced cells with coexistence of 1×10^-9 Am80” value [10] was 64% and the “cell differentiation ability of the compound per se” value (result in words) was “inactive”.
For C=C(c1cccc(/C=C2\SC(=O)NC2=O)c1)c1ccc2c(c1)C(C)(C)CCC2(C)C [TZ243], the “ratios of differentiated cells, Coexisting retinoid (concentration) Am80 (-9)” value (Table 4) was 77, the “ratios of differentiated cells, Coexisting retinoid (concentration) Am80 (-9.5)” value (Table 4) was 35 and the “ratios of differentiated cells, Coexisting retinoid (concentration) Am80 (-10)” value (Table 4) was 5. For the same compound, the “ratios of differentiated cells, Coexisting retinoid (concentration) None” value (Table 4) was 4.2.
For CC1(C)CCC(C)(C)c2cc(C(=O)Nc3ccc(/C=C4\SC(=O)NC4=O)cc3)ccc21 [TZ181], the “effect on the activity of the coexisting Am80” value [8] was “enhanced the activity of the coexisting Am80”, the “Ratio of differentiation-induced cells with coexistence of 1×10^-9 Am80” value [11] was 6% and the “Ratio of differentiation-induced cells with coexistence of 1×10^-9 Am80” value [9] was 58%. The “Ratio of differentiation-induced cells with coexistence of 1×10^-9 Am80” value [10] was 53% and the “cell differentiation ability of the compound per se” value (result in words) was “had cell differentiation ability”.
CC(C)(C)c1cc(C(=O)Nc2ccc(/C=C3\SC(=O)NC3=O)cc2)cc(C(C)(C)C)c1 [TZ151] was tested, and the “effect on the activity of the coexisting Am80” value [1] was “enhanced the activity of the coexisting Am80”, the “Ratio of differentiation-induced cells with coexistence of 1×10^-10 Am80” value [2] was 83% and the “Ratio of differentiation-induced cells with coexistence of 1×10^-10 Am80” value [3] was 43%. For the same compound, the “Ratio of differentiation-induced cells with coexistence of 1×10^-10 Am80” value [4] was 12% and the “cell differentiation ability of the compound per se” value (result in words) was “had cell differentiation ability”.
With Cc1cc2c(cc1C(=O)c1cccc(/C=C3\SC(=O)NC3=O)c1)C(C)(C)CCC2(C)C [TZ227] the “ratios of differentiated cells, Coexisting retinoid (concentration) Am80 (-9)” value (Table 4) was 11.7, the “ratios of differentiated cells, Coexisting retinoid (concentration) Am80 (-9.5)” value (Table 4) was 5.5 and the “ratios of differentiated cells, Coexisting retinoid (concentration) Am80 (-10)” value (Table 4) was 7. For the same compound, the “ratios of differentiated cells, Coexisting retinoid (concentration) None” value (Table 4) was 5.3.
With CC1(C)CCC(C)(C)c2cc(C(=O)c3cccc(/C=C4\SC(=O)NC4=O)c3)ccc21 [TZ223] the “ratios of differentiated cells, Coexisting retinoid (concentration) Am80 (-9)” value (Table 4) was 62, the “ratios of differentiated cells, Coexisting retinoid (concentration) Am80 (-9.5)” value (Table 4) was 22 and the “ratios of differentiated cells, Coexisting retinoid (concentration) Am80 (-10)” value (Table 4) was 5. For the same compound, the “ratios of differentiated cells, Coexisting retinoid (concentration) None” value (Table 4) was 4.4.
With CC1(C)CCC(C)(C)c2cc(Nc3ccc(/C=C4\SC(=O)NC4=O)cc3)ccc21 [TZ321] the “Ratio of differentiation-induced cells with coexistence of 3×10^-9 Am80” value [5] was 88, the “Ratio of differentiation-induced cells with coexistence of 3×10^-9 Am80” value [6] was 83 and the “Ratio of differentiation-induced cells with coexistence of 3×10^-9 Am80” value [7] was 55.
For O=C1NC(=O)/C(=C/c2cccc(C(=O)NCc3ccc(C(F)(F)F)cc3)c2)S1 [TZ105, reference compound], the “effect on the activity of the coexisting retinoid Am80” value ((E) comparison N-benzyl derivative, concentrations not given, result in words) was “failed to effect the activity of the coexisting retinoid Am80” and the “cell differentiation ability of the compound per se” value (result in words) was “completely inactive”.
In the case of CC1(C)CCC(C)(C)c2cc(NC(=O)c3ccc(C(=O)O)cc3)ccc21 [Am80, 4-[(5,6,7,8-tetrahydro-5,5,8,8-tetramethyl-2-naphthalenyl)carbamoyl]benzoic acid, reference compound], the “Ratio of differentiation-induced cells with coexistence of 1×10^-9 Am80” value (test compound concentration None: 1×10^-9 M Am80 alone, control) is reported as 49% and 37% and 48%, the “Ratio of differentiation-induced cells with coexistence of 1×10^-10 Am80” value (test compound concentration None: 1×10^-10 M Am80 alone, control) is reported as 4% and 11% and the “Ratio of differentiation-induced cells with coexistence of 3×10^-9 Am80” value (test compound concentration None: 3×10^-9 M Am80 alone, control) is reported as 44 and 51. For the same compound, the “ratios of differentiated cells, Am80 (-9)” value (Table 4, Compound None: Am80 alone at -9) was 80, the “ratios of differentiated cells, Am80 (-9.5)” value (Table 4, Compound None: Am80 alone at -9.5) was 53 and the “ratios of differentiated cells, Am80 (-10)” value (Table 4, Compound None: Am80 alone at -10) was 8.5.
With CC1(C)CCC(C)(C)c2cc(C(=O)c3ccc(/C=C4\SC(=O)NC4=O)cc3)ccc21 [TZ221] the “Ratio of differentiation-induced cells with coexistence of 3×10^-9 Am80” value [5] was 82, the “Ratio of differentiation-induced cells with coexistence of 3×10^-9 Am80” value [6] was 67 and the “Ratio of differentiation-induced cells with coexistence of 3×10^-9 Am80” value [7] was 54.
In the case of C=C(c1ccc(/C=C2\SC(=O)NC2=O)cc1)c1cc2c(cc1C)C(C)(C)CCC2(C)C [TZ245], the “Ratio of differentiation-induced cells with coexistence of 3×10^-9 Am80” value [5] is reported as 88, the “Ratio of differentiation-induced cells with coexistence of 3×10^-9 Am80” value [6] is reported as 89 and the “Ratio of differentiation-induced cells with coexistence of 3×10^-9 Am80” value [7] is reported as 86.
In the case of C=C(c1ccc(/C=C2\SC(=O)NC2=O)cc1)c1ccc2c(c1)C(C)(C)CCC2(C)C [TZ241], the “Ratio of differentiation-induced cells with coexistence of 3×10^-9 Am80” value [5] is reported as 92, the “Ratio of differentiation-induced cells with coexistence of 3×10^-9 Am80” value [6] is reported as 84 and the “Ratio of differentiation-induced cells with coexistence of 3×10^-9 Am80” value [7] is reported as 76.
C=C(c1cccc(/C=C2\SC(=O)NC2=O)c1)c1cc2c(cc1C)C(C)(C)CCC2(C)C [TZ247] was tested, and the “ratios of differentiated cells, Coexisting retinoid (concentration) Am80 (-9)” value (Table 4) was 10, the “ratios of differentiated cells, Coexisting retinoid (concentration) Am80 (-9.5)” value (Table 4) was 5.8 and the “ratios of differentiated cells, Coexisting retinoid (concentration) Am80 (-10)” value (Table 4) was 6.4. The “ratios of differentiated cells, Coexisting retinoid (concentration) None” value (Table 4) was 7.
In the case of CN(C(=O)c1cc(C(C)(C)C)cc(C(C)(C)C)c1)c1ccc(/C=C2\SC(=O)NC2=O)cc1 [TZ161], the “effect on the activity of the coexisting Am80 at a high concentration” value [1] is reported as “acted to suppress the activity”, the “effect on the activity of the coexisting Am80” value [1] is reported as “enhanced the activity of the coexisting Am80” and the “Ratio of differentiation-induced cells with coexistence of 1×10^-10 Am80” value [2] is reported as 3.8%. For the same compound, the “Ratio of differentiation-induced cells with coexistence of 1×10^-10 Am80” value [3] was 25%, the “Ratio of differentiation-induced cells with coexistence of 1×10^-10 Am80” value [4] was 12% and the “cell differentiation ability of the compound per se” value (result in words) was “inactive”.
